Laboratory results reported in patent US8334288B2, “4-phenoxymethylpiperidines as modulators of GPR119 activity” (IRM LLC, priority 2008, dated 2012).

Molecular target: T1, human GPR119 (Homo sapiens, UniProt Q8TDV5)
T1 construct: expressed in transfected cells; host or cells: Flp-In-CHO cells (Invitrogen, Cat. #R758-07), stably transfected with pcDNA5/FRT-human GPR119 plus pOG44
T1 sequence (Q8TDV5 1-335): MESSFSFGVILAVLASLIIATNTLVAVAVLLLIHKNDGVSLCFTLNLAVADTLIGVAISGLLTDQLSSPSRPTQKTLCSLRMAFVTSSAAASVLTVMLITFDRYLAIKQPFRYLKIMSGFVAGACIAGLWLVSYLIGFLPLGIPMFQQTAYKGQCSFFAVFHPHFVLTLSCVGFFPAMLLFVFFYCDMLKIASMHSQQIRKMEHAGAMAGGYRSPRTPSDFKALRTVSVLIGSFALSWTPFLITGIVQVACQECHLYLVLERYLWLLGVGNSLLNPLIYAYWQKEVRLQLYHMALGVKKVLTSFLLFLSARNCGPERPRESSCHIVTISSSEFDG
Assay: Cyclic AMP assay in stable cell line (HTRF, Flp-In-CHO-hGPR119 cells)
Assay type: cell-based
Conditions: increase in intracellular cAMP, 30 minutes at 37° C., 1 mM IBMX
Method: Flp-In-CHO cells (Invitrogen, Cat. #R758-07) are maintained in Ham's F12 medium supplemented with 10% fetal bovine serum, 1% antibiotic mixture and 2 mM L-glutamine. The cells are transfected with a DNA mixture containing human GPR119 in pcDNA5/FRT vector and the pOG44 vector (1:9) using Fugene6 (Roche), according to the manufacturer's instruction. After 48 h, the medium is changed to medium supplemented with 400 μg/ml hygromycin B to initiate the selection of stably transfected cells.
To test the activity of compounds of the invention, Flp-In-CHO-hGPR119 cells are harvested and resuspended in DMEM plus 3% lipid-depleted fetal bovine serum. Forth μl of cells are plated in 384 well plates at a density of 15,000 cells/well. IBMX (3-isobutyl-1-methyl-xanthine) is added to the cells to a final concentration of 1 mM, followed by the addition of 500 nl of the compound to be tested. The cells are incubated at 37° C. for 30 minutes. Equal volume (20 μl) of the HTRF reagents, anti-cAMP-Cryptate and cAMP-XL665, are added to the cells. The plates are incubated at rt for 1 h and read on a HTRF reader according to the manufacturer's instruction.

| SMILES | EC50 |
| --- | --- |
| CC1(OC(=O)N2CCC(COc3c(F)cc(-c4cnc(C(=O)N5CC[C@H](O)C5)nc4)cc3F)CC2)CC1 [Example J19] | 47 nM |
| CCc1cnc(N2CCC(COc3c(F)cc(-c4ccc(-c5nn[nH]n5)nc4)cc3F)CC2)nc1 [Example B5] | 79 nM |
| CC1(OC(=O)N2CCC(COc3c(F)cc(-c4cnc(C(=O)N5CCC(O)CC5)nc4)cc3F)CC2)CC1 [Example J1] | 13 nM |
| CCCS(=O)(=O)c1ccc(-c2cc(F)c(OCC3CCN(C(=O)OC4(C)CC4)CC3)c(F)c2)c(C)n1 [Example F4, 1-methylcyclopropyl 4-((2,6-difluoro-4-(2-methyl-6-(propylsulfonyl)pyridin-3-yl)phenoxy)methyl)piperidine-1-carboxylate] | 0.3 nM |
| CCc1cnc(N2CCC(COc3c(F)cc(-c4cnn(CCN(C)C)c4)cc3F)CC2)nc1 [Example K1, 2-(4-(4-((1-(5-ethylpyrimidin-2-yl)piperidin-4-yl)methoxy)-3,5-difluorophenyl)-1H-pyrazol-1-yl)-N,N-dimethylethanamine] | 2070 nM |
| CCc1cnc(N2CCC(COc3c(F)cc(-c4ccc(-c5cnco5)cc4)cc3F)CC2)nc1 [Example G1, 5-(4′-((1-(5-ethylpyrimidin-2-yl)piperidin-4-yl)methoxy)-3′,5′-difluorobiphenyl-4-yl)oxazole] | 3 nM |
| CCc1cnc(N2CCC(COc3c(F)cc(-c4ccc(CN(C)C(C)=O)cc4)cc3F)CC2)nc1 [Example L1, N-((4′-((1-(5-ethylpyrimidin-2-yl)piperidin-4-yl)methoxy)-3′,5′-difluorobiphenyl-4-yl)methyl)-N-methylacetamide] | 62 nM |
| CCc1cnc(N2CCC(COc3c(F)cc(-c4ccc(-c5nnn(C)n5)cc4)cc3F)CC2)nc1 [Example C1, 2-(4-((3,5-difluoro-4′-(2-methyl-2H-tetrazol-5-yl)biphenyl-4-yloxy)methyl)piperidin-1-yl)-5-ethylpyrimidine] | 5 nM |
| CN1CCN(C(=O)c2ncc(-c3cc(F)c(OCC4CCN(C(=O)OC5(C)CC5)CC4)c(F)c3)cn2)CC1 [Example J12] | 14 nM |
| CCN(CCO)C(=O)c1ncc(-c2cc(F)c(OCC3CCN(C(=O)OC4(C)CC4)CC3)c(F)c2)cn1 [Example J5] | 19 nM |
| CCCS(=O)(=O)c1ccc(-c2cc(F)c(OCC3CCN(C(=O)OC(C)CC)CC3)c(F)c2)c(C)n1 (stereo not shown) [Example F6, sec-butyl 4-((2,6-difluoro-4-(2-methyl-6-(propylsulfonyl)pyridin-3-yl)phenoxy)methyl)piperidine-1-carboxylate] | 1 nM |
| CCc1cnc(N2CCC(COc3c(F)cc(-c4cccc(Cc5nnn(C)n5)c4)cc3F)CC2)nc1 [Example C5] | 22 nM |
| CCc1cnc(N2CCC(COc3c(F)cc(-c4ccc(Cn5ncnn5)cc4)cc3F)CC2)nc1 [Example H5] | 28 nM |
| CCc1cnc(N2CCC(COc3c(F)cc(-c4cnc(N5CCCC5)nc4)cc3F)CC2)nc1 [Example A16] | 171 nM |
| CC1(OC(=O)N2CCC(COc3c(F)cc(-c4cnc5[nH]c(=O)oc5c4)cc3F)CC2)CC1 [Example J11] | 263 nM |
| CCc1cnc(N2CCC(COc3c(F)cc(-c4cnn(C)c4)cc3F)CC2)nc1 [Example A24] | 258 nM |

| SMILES | EC50 |
| --- | --- |
| CCc1cnc(N2CCC(COc3c(F)cc(-c4ccc(S(=O)(=O)CC5(C)COC5)cc4)cc3F)CC2)nc1 [Example A3, 2-(4-((3,5-difluoro-4′-((3-methyloxetan-3-yl)methylsulfonyl)biphenyl-4-yloxy)methyl)piperidin-1-yl)-5-ethylpyrimidine] | 0.7 nM |
| CC1(OC(=O)N2CCC(COc3c(F)cc(-c4cnc(C(=O)NCCCO)nc4)cc3F)CC2)CC1 [Example J15] | 45 nM |
| CCc1cnc(N2CCC(COc3c(F)cc(-c4ccc(C(C)(C)O)nc4)cc3F)CC2)nc1 [Example A38] | 29 nM |
| CC1(OC(=O)N2CCC(COc3c(F)cc(-c4ccc(S(C)(=O)=O)cc4)cc3F)CC2)CC1 [Example D1, 1-methylcyclopropyl 4-((3,5-difluoro-4′-(methylsulfonyl)biphenyl-4-yloxy)methyl)piperidine-1-carboxylate] | 1 nM |
| CCc1cnc(N2CCC(COc3c(F)cc(-c4cnc(C(N)=O)nc4)cc3F)CC2)nc1 [Example A35] | 9 nM |
| CCc1cnc(N2CCC(COc3c(F)cc(-c4ccc(Cn5ccnc5)cc4)cc3F)CC2)nc1 [Example H4] | 92 nM |
| CCc1cnc(N2CCC(COc3c(F)cc(-c4ccc(S(C)(=O)=O)cc4)cc3F)CC2)nc1 [Example A6] | 0.7 nM |
| CCc1cnc(N2CCC(COc3c(F)cc(-c4ccc(CO)cc4)cc3F)CC2)nc1 [Example A14] | 5 nM |
| COc1cc(-c2cc(F)c(OCC3CCN(C(=O)OC(C)(C)C)CC3)c(F)c2)ccn1 [Example A20] | 46 nM |
| CCc1cnc(N2CCC(COc3c(F)cc(-c4ccc(-n5cncn5)nc4C)cc3F)CC2)nc1 [Example F1, 2-(4-((2,6-difluoro-4-(2-methyl-6-(1H-1,2,4-triazol-1-yl)pyridin-3-yl)phenoxy)methyl)piperidin-1-yl)-5-ethylpyrimidine] | 0.5 nM |
| CC1(OC(=O)N2CCC(COc3c(F)cc(-c4ccc(C5(N)CC5)nc4)cc3F)CC2)CC1 [Example A39] | 37 nM |
| CC(C)(C)OC(=O)N1CCC(COc2c(F)cc(-c3cc[n+]([O-])cc3)cc2F)CC1 [Example E1, 4-(4-((1-(tert-butoxycarbonyl)piperidin-4-yl)methoxy)-3,5-difluorophenyl)pyridine 1-oxide] | 38 nM |
| CCc1cnc(N2CCC(COc3c(F)cc(-c4ccc(S(C)(=O)=O)cn4)cc3F)CC2)nc1 [Example A1, 2-(4-((2,6-difluoro-4-(5-(methylsulfonyl)pyridin-2-yl)phenoxy)methyl)piperidin-1-yl)-5-ethylpyrimidine] | 1 nM |
| CCOC(=O)CCNC(=O)c1ncc(-c2cc(F)c(OCC3CCN(C(=O)OC4(C)CC4)CC3)c(F)c2)cn1 [Example J8] | 10 nM |
| CCc1cnc(N2CCC(COc3c(F)cc(-c4ccc(S(C)(=O)=O)nc4)cc3F)CC2)nc1 [Example A22] | 2 nM |
